This is an account of results in ChEMBL document CHEMBL6087467, “Probing the Histamine H1 Receptor Binding Site to Explore Ligand Binding Kinetics” (J Med Chem, 2025).

In assay [1] the target is T1, Histamine H1 receptor (Homo sapiens, UniProt P35367). The class given is cell-based. Particulars: hek293t.
In assay [2] the target is T1, Histamine H1 receptor. The settings on record: HEK293T, time 4.0 hrs.
The target in assay [3] is T1, Histamine H1 receptor. The settings on record: HEK293T, time 4.0 hrs. The source holds these as a separate data set.
Assay [4] deals with T1, Histamine H1 receptor. As to the kind of experiment: biochemical. The class given is cell-based, HEK293T.
Description: Displacement of [3H]-mepyramine from human histamine H1 receptor expressed in HEK293T cells assessed as inhibition constant incubated for 4 hrs by competitive binding assay
The target of assay [5] is T1, Histamine H1 receptor. Briefly: biochemical. The class given is cell-based, HEK293T. The source holds these as a separate data set.
Description: Displacement of [3H]-mepyramine from human histamine H1 receptor expressed in HEK293T cells assessed as dissociation constant incubated for 4 hrs by competitive binding assay

T1 sequence (P35367 whole entry): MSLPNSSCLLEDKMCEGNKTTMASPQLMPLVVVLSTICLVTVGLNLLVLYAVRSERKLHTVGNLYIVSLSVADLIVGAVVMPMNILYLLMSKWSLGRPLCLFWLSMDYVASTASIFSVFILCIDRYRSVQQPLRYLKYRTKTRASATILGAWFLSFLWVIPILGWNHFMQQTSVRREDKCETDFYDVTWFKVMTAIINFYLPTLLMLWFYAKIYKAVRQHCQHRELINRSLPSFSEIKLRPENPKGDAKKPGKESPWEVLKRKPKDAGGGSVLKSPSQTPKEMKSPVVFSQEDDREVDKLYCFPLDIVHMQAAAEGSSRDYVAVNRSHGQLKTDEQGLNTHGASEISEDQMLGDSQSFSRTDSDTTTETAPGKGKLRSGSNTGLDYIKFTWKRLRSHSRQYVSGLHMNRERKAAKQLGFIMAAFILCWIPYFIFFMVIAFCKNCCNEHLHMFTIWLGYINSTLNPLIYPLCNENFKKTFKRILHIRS

With `O=C(O)CCCCCCCN1CCC(Oc2ccccc2Cc2ccccc2)CC1`, the “Dissociation rate constant (koff)” value on Histamine H1 receptor [1] stood at 0.00115 s⁻¹. Also, the Ka on Histamine H1 receptor [2] was 2.37 10^6/M/min. The same molecule had a Retention time on Histamine H1 receptor [3] of 15 min.

For the molecule `CN(C)CC/C=C1/c2ccccc2COc2ccc(CC(=O)O)cc21`, the Ka at Histamine H1 receptor [2] is 1.9 10^6/M/min. In addition, the Retention time at Histamine H1 receptor [3] stood at 190 min.

Turning to `O=C(O)CCCN1CCC(Oc2ccccc2Cc2ccccc2)CC1`, the “Dissociation rate constant (koff)” value at Histamine H1 receptor [1] was 0.0017 s⁻¹. Further, the Ka at Histamine H1 receptor [2] is 2.9 10^6/M/min. At Histamine H1 receptor [3], this molecule returned a Retention time of 10 min.

Regarding `c1ccc(Cc2ccccc2OC2CCN(CCCCc3nnn[nH]3)CC2)cc1`, the “Dissociation rate constant (koff)” value on Histamine H1 receptor [1] was found to be 0.00035 s⁻¹. Further, the Ka on Histamine H1 receptor [2] is 3.7 10^6/M/min. The same molecule gave a Retention time on Histamine H1 receptor [3] of 48 min.

Turning to `CN1CCC(Oc2cc(C(=O)O)ccc2Cc2ccccc2)CC1`, the “Dissociation rate constant (koff)” value on Histamine H1 receptor [1] came out at 0.017 s⁻¹. Moreover, the Ka on Histamine H1 receptor [2] was 0.06 10^6/M/min. The same molecule registered a Retention time at Histamine H1 receptor [3] of 1.2 min.

For `CN1CCC(Oc2c(CO)cccc2Cc2ccccc2)CC1`, the “Dissociation rate constant (koff)” value on Histamine H1 receptor [1] stood at 0.0122 s⁻¹. Further, the Ka on Histamine H1 receptor [2] was 27 10^6/M/min. The same molecule registered a Retention time on Histamine H1 receptor [3] of 1.4 min.

For the molecule `O=C(O)CCCCCCN1CCC(Oc2ccccc2Cc2ccccc2)CC1`, the “Dissociation rate constant (koff)” value at Histamine H1 receptor [1] stood at 0.00127 s⁻¹. Besides, the Ka at Histamine H1 receptor [2] was 2.5 10^6/M/min. This molecule returned a Retention time at Histamine H1 receptor [3] of 13 min.

Consider `COc1ccc(Cc2ccccc2)c(OC2CCN(C)CC2)c1`, for which the “Dissociation rate constant (koff)” value on Histamine H1 receptor [1] is 0.0083 s⁻¹. Further, the Ka on Histamine H1 receptor [2] was 60 10^6/M/min. For the same molecule, at Histamine H1 receptor [3], the Retention time is 2 min.

Take `O=C(O)CCCCCN1CCC(Oc2ccccc2Cc2ccccc2)CC1`: the “Dissociation rate constant (koff)” value on Histamine H1 receptor [1] came out at 0.001 s⁻¹. Moreover, at Histamine H1 receptor [2], the Ka was 4 10^6/M/min. Further, the Retention time on Histamine H1 receptor [3] was 17 min.

Consider `CN1CCC(Oc2cc(/C=C/C(=O)O)ccc2Cc2ccccc2)CC1`, for which, on Histamine H1 receptor [1], the “Dissociation rate constant (koff)” value is 0.000917 s⁻¹. The Ka on Histamine H1 receptor [2] was 0.62 10^6/M/min. Also, on Histamine H1 receptor [3], the Retention time amounted to 18 min.

As for `CN1CCC(Oc2cc(CO)ccc2Cc2ccccc2)CC1`, the “Dissociation rate constant (koff)” value at Histamine H1 receptor [1] came to 0.00417 s⁻¹. On Histamine H1 receptor [2], the Ka is 98 10^6/M/min. Further, the Retention time at Histamine H1 receptor [3] is 4 min.

Consider `CN1CCC(Oc2c(/C=C/C(=O)O)cccc2Cc2ccccc2)CC1`, for which the “Dissociation rate constant (koff)” value at Histamine H1 receptor [1] was determined as 0.000917 s⁻¹. Moreover, on Histamine H1 receptor [2], the Ka was 1.6 10^6/M/min. Moreover, on Histamine H1 receptor [3], the Retention time is 3 min.

Regarding `CN1CCC(Oc2ccccc2Cc2ccccc2)CC1`, the Ka at Histamine H1 receptor [2] was 160 10^6/M/min. Besides, on Histamine H1 receptor [3], the Retention time was determined as 2 min.

As to `CN1CCC(Oc2c(Cc3ccccc3)cccc2C(=O)O)CC1`, the “Dissociation rate constant (koff)” value at Histamine H1 receptor [1] worked out at 0.004 s⁻¹. Moreover, on Histamine H1 receptor [2], the Ka was 0.5 10^6/M/min. In addition, the Retention time on Histamine H1 receptor [3] was 4.2 min.

Regarding `CN1CCC(Oc2cc(CC(=O)O)ccc2Cc2ccccc2)CC1`, on Histamine H1 receptor [1], the “Dissociation rate constant (koff)” value was determined as 0.00283 s⁻¹. Besides, the Ka at Histamine H1 receptor [2] was 1.3 10^6/M/min. For the same molecule, the Retention time on Histamine H1 receptor [3] stood at 6 min.

With `O=C(O)CCCCN1CCC(Oc2ccccc2Cc2ccccc2)CC1`, the “Dissociation rate constant (koff)” value at Histamine H1 receptor [1] amounted to 0.00075 s⁻¹. At Histamine H1 receptor [2], the Ka is 3.2 10^6/M/min. The same molecule displayed a Retention time at Histamine H1 receptor [3] of 23 min.

Consider `Cc1ccc(/C(=C\CN2CCCC2)c2ccccn2)cc1` [TRIPROLIDINE], for which, on Histamine H1 receptor [2], the Ka is 36 10^6/M/min.

As to `O=C(O)COCCN1CCN([C@H](c2ccccc2)c2ccc(Cl)cc2)CC1`, the Ka on Histamine H1 receptor [2] is 1.4 10^6/M/min.

In the case of `O=C(O)CCN1CCC(Oc2ccccc2Cc2ccccc2)CC1`, the “Dissociation rate constant (koff)” value at Histamine H1 receptor [1] is 0.00183 s⁻¹. Besides, on Histamine H1 receptor [2], the Ka was 2.9 10^6/M/min. For the same molecule, the Retention time at Histamine H1 receptor [3] was 9 min.

As usually defined, the Ki is a measure of affinity in units of concentration, obtained from inhibition or displacement. A higher Ki goes with weaker binding. One may read the Kd as the equilibrium constant for the complex coming apart. As to `CC(=O)Cc1cccc(Cc2ccccc2)c1OC1CCN(C)CC1`, on Histamine H1 receptor [4], the Ki is 39.8 nM. This molecule also gave a Kd on Histamine H1 receptor [5] of 39.8 nM. Also, the “Dissociation rate constant (koff)” value on Histamine H1 receptor [1] was 0.00138 s⁻¹. In addition, at Histamine H1 receptor [2], the Ka is 2.08 10^6/M/min. The same molecule came in with a Retention time on Histamine H1 receptor [3] of 12.1 min.
